22 molecules from patent US11566002B2, “Substituted tetrahydrocyclopenta[C]pyrroles, substituted dihydropyrrolizines, analogues thereof, and methods using same” (priority 2018, dated 2023) can be followed below.

The test relates to HBV rcDNA. The experiment in a line: HepDE19 assay with bDNA quantitation of HBV rcDNA. It counts as cell-based, hepatitis B virus. The procedure, abridged: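 Cytotoxicity (CC50) measured by CellTiter-Glo ATP content in parallel plates, 5,000 cells/well, 4 days. Antiviral EC50 and EC90 derived from HBV rcDNA bDNA levels after 7-day compound exposure (top 25 μM, ½-log 8-point, 0.5% DMSO) of Tet-withdrawn HepDE19 cells at 50,000/well, as % inhibition versus untreated.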

[1] abbreviates: HepDE19 cells, Tet-free medium, 7 day-incubation, rcDNA measured by Quantigene 2.0 bDNA assay, top concentration 25 μM; read-out: DE-19 bDNA EC50.
Setting [2] is: read-out: DE-19 bDNA EC50; HepDE19 cells, Tet-free medium, 7 day-incubation, rcDNA measured by Quantigene 2.0 bDNA assay, top concentration 25 μM.
Where [3] appears, read: Hepatitis B virus, HepDE19, 168 h, HepDE19 cells, Tet-free medium, 7 day-incubation, rcDNA measured by Quantigene 2.0 bDNA assay, top concentration 25 μM; read-out: DE-19 bDNA EC50.

Like-named read-outs stand apart in the source and are kept apart here.

As usually defined, the EC50 is the concentration needed to bring the measured effect to its halfway point.

For `Cc1n[nH]nc1COC(=O)NC1CCc2c1cn(C)c2C(=O)Nc1ccc(F)c(Cl)c1` (single isomer, unassigned) [Compound 138, (5-Methyl-2H-1,2,3-triazol-4-yl)methyl (1-((3-chloro-4-fluorophenyl)carbamoyl)-2-methyl-2,4,5,6-tetrahydrocyclopenta[c]pyrrol-4-yl)carbamate], the half-maximal effective concentration (EC50) under setting [1] amounted to 0.86 µM.

For the molecule `Cc1n[nH]nc1COC(=O)NC1CCc2c1cn(C)c2C(=O)Nc1ccc(F)c(Cl)c1` (single isomer, unassigned) [Compound 139, (5-Methyl-2H-1,2,3-triazol-4-yl)methyl (1-((3-chloro-4-fluorophenyl)carbamoyl)-2-methyl-2,4,5,6-tetrahydrocyclopenta[c]pyrrol-4-yl)carbamate], the EC50 under setting [1] is 3.6 µM.

Regarding `CCc1n[nH]nc1COC(=O)NC1CCc2c1cn(C)c2C(=O)Nc1ccc(F)c(Cl)c1` (single isomer, unassigned) [Compound 140, (5-Ethyl-2H-1,2,3-triazol-4-yl)methyl(1-((3-chloro-4-fluorophenyl)carbamoyl)-2-methyl-2,4,5,6-tetrahydrocyclopenta[c]pyrrol-4-yl)carbamate], the EC50 under setting [2] came out at 12 µM.

Take `CCc1n[nH]nc1COC(=O)NC1CCc2c1cn(C)c2C(=O)Nc1ccc(F)c(Cl)c1` (single isomer, unassigned) [Compound 141, (5-Ethyl-2H-1,2,3-triazol-4-yl)methyl(1-((3-chloro-4-fluorophenyl)carbamoyl)-2-methyl-2,4,5,6-tetrahydrocyclopenta[c]pyrrol-4-yl)carbamate]: under setting [2], the EC50 stood at 1.2 µM.

For `Cn1cc2c(c1C(=O)Nc1ccc(F)c(Cl)c1)CCC2NC(=O)OCc1nnnn1C` (single isomer, unassigned) [Compound 144, (1-Methyl-1H-tetrazol-5-yl)methyl(1-((3-chloro-4-fluorophenyl)carbamoyl)-2-methyl-2,4,5,6-tetrahydrocyclopenta[c]pyrrol-4-yl)carbamate], the EC50 under setting [2] was 0.06 µM.

As for `Cn1cc2c(c1C(=O)Nc1ccc(F)c(Cl)c1)CCC2NC(=O)OCc1nnnn1C` (single isomer, unassigned) [Compound 145, (1-Methyl-1H-tetrazol-5-yl)methyl (1-((3-chloro-4-fluorophenyl)carbamoyl)-2-methyl-2,4,5,6-tetrahydrocyclopenta[c]pyrrol-4-yl)carbamate], under setting [3], the EC50 amounted to 2.7 µM.

For `Cn1cc2c(c1C(=O)Nc1ccc(F)c(Cl)c1)CCC2NC(=O)OCc1n[nH]nc1C1CC1` (single isomer, unassigned) [Compound 146, (5-Cyclopropyl-2H-1,2,3-triazol-4-yl)methyl (1-((3-chloro-4-fluorophenyl)carbamoyl)-2-methyl-2,4,5,6-tetrahydrocyclopenta[c]pyrrol-4-yl)carbamate], the EC50 under setting [1] came to 9.3 µM.

Consider `Cn1cc2c(c1C(=O)Nc1ccc(F)c(Cl)c1)CCC2NC(=O)OCc1n[nH]nc1C1CC1` (single isomer, unassigned) [Compound 147, (5-Cyclopropyl-2H-1,2,3-triazol-4-yl)methyl (1-((3-chloro-4-fluorophenyl)carbamoyl)-2-methyl-2,4,5,6-tetrahydrocyclopenta[c]pyrrol-4-yl)carbamate], for which, under setting [1], the EC50 is 3.6 µM.

As for `Cn1cc2c(c1C(=O)Nc1ccc(F)c(Cl)c1)CCC2NC(=O)OCc1nn[nH]n1` (single isomer, unassigned) [Compound 149, (2H-Tetrazol-5-yl)methyl(1-((3-chloro-4-fluorophenyl)carbamoyl)-2-methyl-2,4,5,6-tetrahydrocyclopenta[c]pyrrol-4-yl)carbamate], under setting [2], the EC50 worked out at 1.1 µM.

For the molecule `Cn1cc2c(c1C(=O)Nc1ccc(F)c(Cl)c1)CCC2NC(=O)OCc1nn[nH]n1` (single isomer, unassigned) [Compound 150, (2H-Tetrazol-5-yl)methyl(1-((3-chloro-4-fluorophenyl)carbamoyl)-2-methyl-2,4,5,6-tetrahydrocyclopenta[c]pyrrol-4-yl)carbamate], the EC50 under setting [2] is 6.8 µM.

With `Cn1cc2c(c1C(=O)Nc1ccc(F)c(Cl)c1)CCC2NC(=O)OCc1ccccn1` (stereo not shown) [Compound 2, pyridin-2-ylmethyl (1-((3-chloro-4-fluorophenyl)carbamoy1)-2-methyl-2,4,5,6-tetrahydrocyclopenta[c]pyrrol-4-yl)carbamate], the EC50 under setting [1] was 0.26 µM.

As for `Cn1cc2c(c1C(=O)Nc1ccc(F)c(Cl)c1)CCC2NC(=O)OCc1ccccn1` (stereo not shown) [Compound 6], the EC50 under setting [1] came out at 0.14 µM.

For `Cn1cc2c(c1C(=O)Nc1ccc(F)c(Cl)c1)CCC2NC(=O)OCc1ccccn1` (stereo not shown) [Compound 7, pyridin-2-ylmethyl(1-((3-chloro-4-fluorophenyl)carbamoy1)-2-methyl-2,4,5,6-tetrahydrocyclopenta[c]pyrrol-4-yl)carbamate], the EC50 under setting [1] was determined as 1.4 µM.

With `COC(=O)NC1CCc2c1c[nH]c2C(=O)Nc1ccc(F)c(Cl)c1` (stereo not shown) [Compound 9, methyl 1-(3-chloro-4-fluorophenylcarbamoyl)-2,4,5,6-tetrahydrocyclopenta[c]pyrrol-4-ylcarbamate], the EC50 under setting [3] amounted to 3 µM.

Turning to `CCn1cc2c(c1C(=O)Nc1ccc(F)c(Cl)c1)CCC2NS(=O)(=O)C1CC1` (stereo not shown) [Compound 12, N-(3-Chloro-4-fluorophenyl)-4-(cyclopropanesulfonamido)-2-ethyl-2,4,5,6-tetrahydrocyclopenta[c]pyrrole-1-carboxamide], the EC50 under setting [3] came to 0.26 µM.

As for `CCn1cc2c(c1C(=O)Nc1ccc(F)c(Cl)c1)CCC2NC(=O)C1CC1` (stereo not shown) [Compound 18, N-(3-Chloro-4-fluorophenyl)-4-(cyclopropanecarboxamido)-2-ethyl-2,4,5,6-tetrahydro cyclopenta[c]pyrrole-1-carboxamide], the EC50 under setting [3] stood at 0.35 µM.

For `Cn1cc2c(c1C(=O)Nc1ccc(F)c(Cl)c1)CCC2=O` [Compound 44, N-(3-chloro-4-fluorophenyl)-2-methyl-4-oxo-2,4,5,6-tetrahydrocyclopenta[c]pyrrole-1-carboxamide], the EC50 under setting [3] is 19 µM.

In the case of `Cn1cc2c(c1C(=O)Nc1ccc(F)c(Cl)c1)CCCC2=O` [Compound 45, N-(3-chloro-4-fluorophenyl)-2-methyl-4-oxo-4,5,6,7-tetrahydro-2H-isoindole-1-carboxamide], under setting [3], the EC50 turned out to be 0.07 µM.

For `Cn1cc2c(c1C(=O)Nc1ccc(F)c(Cl)c1)CCC2NC(=O)OCc1ccn(C2CCCCO2)n1` (stereo not shown) [Compound 63, (1-(Tetrahydro-2H-pyran-2-yl)-1H-pyrazol-3-yl)methyl (1-((3-chloro-4-fluorophenyl)carbamoyl)-2-methyl-2,4,5,6-tetrahydrocyclopenta[c]pyrrol-4-yl)carbamate], under setting [3], the EC50 amounted to 0.14 µM.

On to `Cn1cc2c(c1C(=O)Nc1ccc(F)c(Cl)c1)CCCCC2=O` [Compound 72, N-(3-chloro-4-fluorophenyl)-2-methyl-4-oxo-2,4,5,6,7,8-hexahydrocyclohepta[c]pyrrole-1-carboxamide], for which the EC50 under setting [3] was determined as 0.05 µM.

Turning to `Cn1cc2c(c1C(=O)Nc1ccc(F)c(Cl)c1)CCCCC2N` (stereo not shown) [Compound 80, 4-Amino-N-(3-chloro-4-fluorophenyl)-2-methyl-2,4,5,6,7,8-hexahydro cyclohepta[c]pyrrole-1-carboxamide], the EC50 under setting [3] turned out to be 1.85 µM.

In the case of `Cn1cc2c(c1C(=O)Nc1ccc(F)c(Cl)c1)CCCCC2N` (stereo not shown) [Compound 87, 4-Amino-N-(3-chloro-4-fluorophenyl)-2-methyl-2,4,5,6,7,8-hexahydro cyclohepta[c]pyrrole-1-carboxamide], the EC50 under setting [1] worked out at 1.6 µM.
